The text below walks through data of US20220025004A1, “COMPOSITIONS AND METHODS RELATED TO SITE-SPECIFIC IDENTIFICATION OF RNA MODIFICATIONS” (The University of Chicago, priority 2018, published 2022).

The subject of one assay is Flt3L-DCs. Description: Cross-priming capacity of Flt3L-DCs pre-treated with CA-074 and/or cathepsin L inhibitor III, co-cultured with necrotic B16-OVA (IFN-γ production). Particulars: 5 μg/ml inhibitor for 2 h, necrotic B16-OVA 16 h, OT-I cells 3 days, FIG. 12F. It counts as cell-based, mouse. The method, then:
(§1) For cross-presentation of tumor neoantigen, CD11b^+ or CD8^+ DC were purified from draining lymph node of WT or Ythdf1^−/− mice six days after inoculating with B16-OVA, MC38-OTIp or MC38-EGFR-SIY. OT-I or 2C naive CD8^+ T cells were isolated from lymph nodes and spleen of 6 to 12-week-old mice. Negative selection was carried out with a negative CD8 isolation kit (StemCell Technologies, Inc.) following manufacturer's instruction. DCs were co-cultured with OT-1 naive CD8 T cells at the ratio of 1:10 for three days with or without 1 μg/ml SIINFEKEL peptide. For cross-presentation of soluble OVA, splenic DCs were sorted and stimulated with 100 ng/ml LPS overnight. DCs were then pulsed with different concentration of OVA (endotoxin free, Sigma) for 5 hours. Cells were washed and co-cultured with OT-I naive CD8^+ T cells for three days. For in vitro cross-presentation of tumor neoantigen, Flt3L-DCs were collected on day 9-10 and co-cultured with necrotic B16-OVA tumor cells overnight. B220^−CD11c^+ cells were subsequently purified. […] IFN-T production was detected by IFN-γ Flex Set CBA assay (BD Bioscience). […] The cross-priming capacity of DC was analyzed by the dilution of CTV in CD8^+ T cells. […] The cross-priming capacity of DCs was then evaluated by the IFN-γ production. […]

Another assay relates to wild-type DCs. As to the kind of experiment: Cross-priming capacity of wild-type DCs pre-treated with cathepsin inhibitor E64 (ex vivo cDCs, CTV dilution; GMDCs, IFN-γ CBA). The class given is cell-based, mouse. Particulars: E64 0.04 μM (ex vivo cDCs, OVA protein) or 0.2-2 μM (GMDCs, B16-OVA); OT-I T cells; FIGS. 12D-12E. The procedure:
as §1

The subject of a further assay is B16-OVA tumors. Description: Cathepsin blockade in vivo: B16-OVA tumor growth after intratumoral E64. Set-up: species or system mouse. Particulars: WT mice, s.c. B16-OVA, E64 intratumorally (5 μM or 50 μM) on day 11; FIG. 4B. The method, then:
About 1×10^6 B16-OVA or MC38 tumor cells were injected s.c. into the flank of mice. Tumor volumes were measured by length (a) and width (b) and calculated as tumor volume=ab^2/2. Mice with tumor volumes less than 200 mm^3 are considered to be survival. For in vivo depletion experiments, 200 μg of anti-CD8 antibody (clone YTS169.4) or anti-NK1.1 (clone PK136) was injected i.p. three days after tumor inoculation. To block cathepsins in vivo, mice were inoculated with 1×10^6 B16-OVA cells. On day 11, mice with established tumors were treated with E64 intratumorally. For anti-PDL1 treatment, 1×10^6 B16-OVA tumor cells were s.c. injected into the flank of mice. Tumors were allowed to grow for seven days and treated i.p. by anti-PDL1 (clone10F.9G2) or Rat Ig. Tumor-free mice after treatment were monitored over time and the percentage of tumor-regression was calculated. To block IFNγ, tumor-bearing mice were treated with 50 μg anti-IFNγ mAb (clone XMG1.2) intratumorally and PD-L1 expression on tumor cells was evaluated by flow cytometry. All antibodies were ‘InVivoMAb’ from BioXCell. For adoptive transfer of T cells. Rag mice were inoculated with 5×10^5 B16-OVA on day 0. On the same day, T cells were purified from WT or Ythdf1^−/− mice using T cell negative isolation Kit (STEM CELL). 5×10^6 T cells were intravenously (i.v.) injected into Rag2^−/− mice.

The structures appear in SMILES notation. Where a SMILES comes first, the peptide text is derived from it. The star is where a group is joined. Cbz = O=C(OCc1ccccc1)*; CHN2 = [N-]=[N+]=C*; tBu = CC(C)(C)*

Consider `CC(C)(C)Oc1ccc(C[C@H](NC(=O)[C@H](Cc2ccccc2)NC(=O)OCc2ccccc2)C(=O)C=[N+]=[N-])cc1` [cathepsin L inhibitor III] (Cbz-Phe-Tyr(tBu)-CHN2), for which, in the assay on Flt3L-DCs, the “efficiency of cross-priming in wild-type DCs” value (“efficiency of cross-priming” below) was “notably enhanced”.

With `CC(C)C[C@H](NC(=O)[C@H]1O[C@@H]1C(=O)O)C(=O)NCCCCN=C(N)N` [E64], in the assay on wild-type DCs, the “efficiency of cross-priming” value is recorded as “notably enhanced”. The “in vivo antitumor response” value in the assay on B16-OVA tumors is reported as “markedly improved”.

In the case of `CCCNC(=O)[C@H]1O[C@@H]1C(=O)N[C@H](C(=O)N1CCC[C@H]1C(=O)OC)[C@@H](C)CC` [CA-074], the “efficiency of cross-priming” value in the assay with Flt3L-DCs was “notably enhanced”.
